Data as given in article PMC9031249, “New 3-Acyl Tetramic Acid Derivatives from the Deep-Sea-Derived Fungus Lecanicillium fusisporum” (Marine Drugs, 2022).

Test system: NO production in LPS-induced RAW264.7 cells
Experiment: not given
Parameters: method as in PMID 24016057, PMID 27976895
Settings: read-out: EC50, inhibition of NO production; cited from earlier work

Row | Compound | EC50
1 | C/C=C/C1=CC=C/C(=C2\C(=O)CNC2=O)O1 [Vermelhotin] | 5.35 µM
2 | pseurotin A3 | 34.5 µM
3 | pseurotin G | 57 µM

Test system: NF-κB
Experiment: NF-κB luciferase reporter assay in LPS-induced RAW264.7 cells
Format: cell-based
Settings: LPS induced RAW264.7 cells stably transfected with NF-κB luciferase reporter; treated 4 h, then LPS 100 ng/mL for 6 h; read-out: EC50, inhibition of NF-κB production
Experimental: The effects of 1–8 on LPS-induced NF-κB luciferase activity were detected by luciferase reporter gene assay as described earlier. Briefly, RAW264.7 cells, stably transfected with a NF-κB luciferase reporter construct, were treated with 1–8 (30 μM) and BAY11-7082 (NF-κB inhibitor, 5 μM) for 4 h, followed by stimulation with LPS (100 ng/mL^−1) for 6 h. The luciferase activity was determined using the luciferase assay system (Promega, Madison, WI, USA). The dose-dependent effects of 1–8 and BAY11-7082 on LPS induced NF-κB luciferase activity were detected by the same assay.

Row | EC50 | Compound
4 | 1.5 ± 1.4 µM | Cc1ccc(S(=O)(=O)/C=C/C#N)cc1 [BAY11-7082, reference compound]
5 | 25.8 ± 1.3 µM | CC(C)=C1NC(=O)C(O)(C2C=CCC(C)O2)C1=O (stereo not drawn) [Compound 2, Lecanicilliumin B]
6 | 24.7 ± 1.19 µM | COC1CC(C2(O)C(=O)NC(=C(C)C)C2=O)CC(C)O1 (stereo not drawn) [Compound 6, Lecanicilliumin F]

Same assay, conditions: Mus musculus, RAW264.7, LPS induced RAW264.7 cells stably transfected with NF-κB luciferase reporter; treated 4 h, then LPS 100 ng/mL for 6 h; read-out: EC50, inhibition of NF-κB production

Row | EC50 | Compound
7 | 18.5 ± 1.21 µM | CC(C)=C1NC(=O)C(O)(C2C=CCC(C)O2)C1=O (stereo not drawn) [Compound 1, Lecanicilliumin A]
8 | 23.1 ± 1.26 µM | COC1CC(C2(O)C(=O)NC(=C(C)C)C2=O)CC(C)O1 (stereo not drawn) [Compound 5, Lecanicilliumin E]
9 | 26.5 ± 1.12 µM | CC(C)=C1NC(=O)C(O)(CC=CCC(C)O)C1=O (stereo not drawn) [Compound 7, Lecanicilliumin G]
